Key:
S-SMase = target: T1, S-SMase (Mus musculus, UniProt Q04519); assay: SMase assay of conditioned medium from J774 macrophages (SM micelles, pH 5.0); format: biochemical; settings: 0.1 mM ZnCl2 versus 5 mM EDTA
T1 construct: endogenous in cells; host or cells: J774.A1 macrophages, serum-free conditioned medium
T1 sequence (Q04519 45-627): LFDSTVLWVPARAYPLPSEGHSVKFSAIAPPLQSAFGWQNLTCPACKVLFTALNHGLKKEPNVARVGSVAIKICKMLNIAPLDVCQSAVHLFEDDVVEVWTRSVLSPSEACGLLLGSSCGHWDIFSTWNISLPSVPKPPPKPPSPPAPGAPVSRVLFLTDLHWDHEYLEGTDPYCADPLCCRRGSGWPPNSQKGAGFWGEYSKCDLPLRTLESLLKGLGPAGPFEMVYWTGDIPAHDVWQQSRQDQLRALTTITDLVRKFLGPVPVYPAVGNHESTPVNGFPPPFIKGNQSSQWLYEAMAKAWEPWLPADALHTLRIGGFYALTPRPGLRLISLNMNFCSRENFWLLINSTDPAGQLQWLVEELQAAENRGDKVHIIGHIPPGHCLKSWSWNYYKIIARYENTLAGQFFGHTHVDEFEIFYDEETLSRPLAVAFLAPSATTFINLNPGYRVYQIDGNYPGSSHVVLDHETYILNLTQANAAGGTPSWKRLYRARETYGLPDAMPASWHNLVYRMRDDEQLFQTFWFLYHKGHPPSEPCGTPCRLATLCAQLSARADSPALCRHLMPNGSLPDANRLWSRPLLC
Description: FIGS. 14A-B. Sequential chelation and addition of Zn^2+ to secreted and intracellular SMase. Serum-free conditioned medium and a cell homogenate from J774 macrophages were prepared as described in “Experimental Procedures”. FIG. 14A, conditioned medium (CM) was assayed for SMase activity using 250 nM [^3H]sphingomyelin in Triton X-100 micelles in the presence of either 5 mM EDTA (first bar) or 0.1 mM ZnCl2 (second bar) for 1 h at 37° C. at pH 5.0. An aliquot of the Zn-activated conditioned medium was then incubated for 18 h in the presence of 10 mM EDTA, 10 mM 1,10-phenanthroline, and 0.6% Triton X-100 at 4° C. (EDTA PHNANTH) and then assayed for SMase activity (third bar). After chelation, a portion of this partially inactivated conditioned medium was then dialyzed against zinc-containing buffer C (150 mM NaCl, 10 mM Tris-HCl, 1 mM ZnCl2, 0.6% Triton X-100, pH 7.4) for 18 h and then assayed for SMase activity (fourth bar). FIG. 14B, an aliquot of cell homogenate (Cell Homgn) was assayed for SMase activity in the presence of assay buffer alone (first bar), 5 mM EDTA (second bar), or 0.1 mM ZnCl2 (third bar). Another aliquot of cell homogenate was incubated for 8 h in the presence of 10 mM EDTA, 10 mm 1,10-phenanthroline, and 0.6% Triton X-100 (EDTA PHNANTH) at 4° C. and then assayed for SMase activity (fourth bar). An aliquot of this chelator-treated cell homogenate was then dialyzed against zinc-containing buffer C for 18 h and then assayed for SMase activity (fifth bar).
SMase Assay—As previously described (Schissel et al., 1996), the standard 200-μl assay mixture consisted of up to 40 μl of sample (conditioned media or homogenized cells; see above) and a volume of assay buffer (0.1 M sodium acetate, pH 5.0) to bring the volume to 160 μl. […] The ceramide spots were scraped and directly counted to quantify [^3H]ceramide. Typically, the assay reactions contained approximately 20 μg of cellular homogenate protein and a volume of conditioned media derived from a quantity of cells equivalent to approximately 50 μg of cellular protein.

HUVECs = assay: LDH release from HUVECs; format: cell-based, human; settings: IL-1β 5 ng/ml, 18 h
Description: HUVECs were incubated for 18 h in DMEM, 0.2% BSA alone (Con) or containing human recombinant interleukin-1β (5 ng/ml) (IL1β). Conditioned media from these cells were then assayed for SMase activity (FIG. 25A) and LDH activity (FIG. 25B).
LDH Assay—LDH activity was assayed in medium and cells as reported previously (42) using a kit purchased from Sigma (catalogue #500); the assay measures the unreacted pyruvic acid using a colorometric assay.

ASM (SMase) mRNA = assay: Northern blot of SMase mRNA in HUVECs; format: cell-based, human; settings: IL-1β 5 ng/ml, 18 h
Description: FIG. 24. Northern blot analysis of HUVECs incubated in the absence or presence of IL-1β. HUVECs were incubated for 18 h in DMEM, 0.2% BSA alone (Con) or containing human recombinant interleukin-1β (5 ng/ml) (IL1β).
Northern Blot of SMase mRNA—Total cellular RNA was isolated from HUVECs using RNAzol B (Tel-Test. Inc., Friendswood, Tex.). Approximately 10 μg of RNA was separated on a 1% agarose gel and blotted onto a nylon membrane. The membrane was hybridized in a QuikHyb hybridization solution (Stratagene) with a 1.6-kB EcoRI-XhoI fragment of human ASM cDNA (41) that was labeled with ^32P by the random-priming Procedure (GIBCO-BRL®). The amount of RNA loaded for each condition was normalized using a probe to glyceraldehyde-3-phosphate dehydrogenase. The relative intensities of the mRNA bands were determined by densitometric scanning of the autoradiograms using a Molecular Dynamics Computing Densitometer (model 300A) with Image-Quant software.

Row | activation of S-SMase (S-SMase) | increase in SMase mRNA normalized for GAPDH mRNA (ASM (SMase) mRNA) | Molecule | increase in LDH release (HUVECs)
1 | markedly activated | – | [Cl-].[Cl-].[Zn+2] [Zn^2+, ZnCl2] | –
2 | – | ~40% | IL-1β: human recombinant interleukin-1β | 60%
